In ChEMBL document CHEMBL3259630, “Interkingdom pharmacology of Angiotensin-I converting enzyme inhibitor phosphonates produced by actinomycetes” (ACS Med Chem Lett, 2014):

What was measured:
[1] = molecular target: T1, Angiotensin-converting enzyme (Oryctolagus cuniculus, UniProt P12822); experiment: Inhibition of rabbit lung somatic ACE using FAPGG substrate
T1 sequence (P12822 whole entry): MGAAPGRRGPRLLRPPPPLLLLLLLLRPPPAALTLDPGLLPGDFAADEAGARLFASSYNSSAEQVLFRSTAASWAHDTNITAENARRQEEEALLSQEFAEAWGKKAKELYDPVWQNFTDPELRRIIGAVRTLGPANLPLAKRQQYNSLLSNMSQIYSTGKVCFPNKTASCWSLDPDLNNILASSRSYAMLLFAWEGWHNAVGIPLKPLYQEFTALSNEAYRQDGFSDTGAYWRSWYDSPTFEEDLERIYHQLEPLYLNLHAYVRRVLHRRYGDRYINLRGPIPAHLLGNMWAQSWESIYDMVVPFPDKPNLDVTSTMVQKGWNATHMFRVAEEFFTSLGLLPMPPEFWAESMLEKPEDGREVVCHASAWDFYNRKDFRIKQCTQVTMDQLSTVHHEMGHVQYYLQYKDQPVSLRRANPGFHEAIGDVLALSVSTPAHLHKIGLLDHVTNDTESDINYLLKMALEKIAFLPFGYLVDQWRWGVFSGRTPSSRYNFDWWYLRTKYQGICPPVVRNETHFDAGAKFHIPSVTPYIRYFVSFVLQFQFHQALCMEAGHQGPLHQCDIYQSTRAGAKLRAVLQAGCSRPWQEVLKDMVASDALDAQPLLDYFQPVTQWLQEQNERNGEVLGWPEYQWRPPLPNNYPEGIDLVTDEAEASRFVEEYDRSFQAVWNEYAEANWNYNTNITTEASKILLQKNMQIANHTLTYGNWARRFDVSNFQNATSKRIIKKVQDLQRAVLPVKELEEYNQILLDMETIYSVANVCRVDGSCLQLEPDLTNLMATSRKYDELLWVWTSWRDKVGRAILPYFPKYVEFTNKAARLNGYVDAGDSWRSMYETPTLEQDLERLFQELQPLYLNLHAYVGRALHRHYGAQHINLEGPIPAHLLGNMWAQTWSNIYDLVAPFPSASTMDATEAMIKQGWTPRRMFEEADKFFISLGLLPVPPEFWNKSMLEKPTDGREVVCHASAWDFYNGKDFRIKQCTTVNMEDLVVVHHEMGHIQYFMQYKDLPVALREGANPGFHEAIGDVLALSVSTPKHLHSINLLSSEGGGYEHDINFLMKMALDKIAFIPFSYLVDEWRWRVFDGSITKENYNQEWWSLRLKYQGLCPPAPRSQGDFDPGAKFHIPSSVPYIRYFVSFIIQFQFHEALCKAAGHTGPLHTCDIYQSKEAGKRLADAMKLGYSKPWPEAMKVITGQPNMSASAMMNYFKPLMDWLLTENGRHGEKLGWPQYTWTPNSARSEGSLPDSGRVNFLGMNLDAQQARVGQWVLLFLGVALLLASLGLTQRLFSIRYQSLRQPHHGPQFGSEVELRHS

[2] = molecular target: T2, Angiotensin-converting enzyme (Homo sapiens, UniProt P12821); experiment: Inhibition of human ACE C-terminal domain using Cbz-Phe-His-Leu-OH substrate
T2 sequence (P12821 whole entry, the tested form may be a part): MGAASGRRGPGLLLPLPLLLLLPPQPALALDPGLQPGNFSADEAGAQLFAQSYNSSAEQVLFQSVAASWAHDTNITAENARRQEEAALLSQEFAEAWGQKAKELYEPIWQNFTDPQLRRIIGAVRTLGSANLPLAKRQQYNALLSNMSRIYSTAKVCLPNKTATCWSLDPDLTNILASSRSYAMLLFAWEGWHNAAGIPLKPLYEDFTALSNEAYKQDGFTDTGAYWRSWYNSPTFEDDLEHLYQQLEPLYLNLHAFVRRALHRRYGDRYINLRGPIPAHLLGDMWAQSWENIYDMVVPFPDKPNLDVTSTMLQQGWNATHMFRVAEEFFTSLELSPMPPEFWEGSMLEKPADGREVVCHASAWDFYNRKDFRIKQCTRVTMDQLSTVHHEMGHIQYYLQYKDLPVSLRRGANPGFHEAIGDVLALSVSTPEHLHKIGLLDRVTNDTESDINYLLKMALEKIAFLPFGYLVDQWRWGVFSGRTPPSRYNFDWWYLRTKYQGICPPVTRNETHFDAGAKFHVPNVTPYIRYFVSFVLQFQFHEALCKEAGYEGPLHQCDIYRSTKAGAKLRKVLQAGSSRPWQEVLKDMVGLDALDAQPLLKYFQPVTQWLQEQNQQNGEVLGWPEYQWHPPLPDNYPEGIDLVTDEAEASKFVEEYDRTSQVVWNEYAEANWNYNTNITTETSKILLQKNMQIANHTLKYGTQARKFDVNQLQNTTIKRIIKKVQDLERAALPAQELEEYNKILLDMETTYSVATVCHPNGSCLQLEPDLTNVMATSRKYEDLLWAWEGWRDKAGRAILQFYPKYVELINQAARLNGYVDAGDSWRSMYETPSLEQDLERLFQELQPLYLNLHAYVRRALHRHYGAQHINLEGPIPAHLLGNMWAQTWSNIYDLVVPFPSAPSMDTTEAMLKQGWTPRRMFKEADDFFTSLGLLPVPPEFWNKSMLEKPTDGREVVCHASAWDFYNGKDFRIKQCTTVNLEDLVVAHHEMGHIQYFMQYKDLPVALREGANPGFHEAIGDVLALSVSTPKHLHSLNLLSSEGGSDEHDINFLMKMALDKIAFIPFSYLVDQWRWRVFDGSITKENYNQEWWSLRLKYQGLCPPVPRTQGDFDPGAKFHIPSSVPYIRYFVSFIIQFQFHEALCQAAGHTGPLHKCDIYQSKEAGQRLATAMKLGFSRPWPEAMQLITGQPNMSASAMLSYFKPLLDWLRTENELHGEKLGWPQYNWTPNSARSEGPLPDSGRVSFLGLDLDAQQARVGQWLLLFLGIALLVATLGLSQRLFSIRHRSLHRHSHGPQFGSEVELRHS

[3] = molecular target: T2, Angiotensin-converting enzyme; experiment: Inhibition of human ACE N-terminal domain using Cbz-Phe-His-Leu-OH substrate
[4] = molecular target: T2, Angiotensin-converting enzyme; experiment: Inhibition of ACE (unknown origin)
[5] = Inhibition of Schwanella oneidensis dipeptidyl carboxypeptidase assessed as FAPGG substrate hydrolysis
[6] = Inhibition of Astrosporangium hypotensionis dicarboxypeptidase assessed as FAPGG substrate hydrolysis
[7] = molecular target: T3, Dipeptidyl carboxypeptidase (Escherichia coli (strain K12), UniProt P24171); experiment: Inhibition of Escherichia coli dipeptidyl carboxypeptidase assessed as FAPGG substrate hydrolysis
T3 sequence (P24171 whole entry): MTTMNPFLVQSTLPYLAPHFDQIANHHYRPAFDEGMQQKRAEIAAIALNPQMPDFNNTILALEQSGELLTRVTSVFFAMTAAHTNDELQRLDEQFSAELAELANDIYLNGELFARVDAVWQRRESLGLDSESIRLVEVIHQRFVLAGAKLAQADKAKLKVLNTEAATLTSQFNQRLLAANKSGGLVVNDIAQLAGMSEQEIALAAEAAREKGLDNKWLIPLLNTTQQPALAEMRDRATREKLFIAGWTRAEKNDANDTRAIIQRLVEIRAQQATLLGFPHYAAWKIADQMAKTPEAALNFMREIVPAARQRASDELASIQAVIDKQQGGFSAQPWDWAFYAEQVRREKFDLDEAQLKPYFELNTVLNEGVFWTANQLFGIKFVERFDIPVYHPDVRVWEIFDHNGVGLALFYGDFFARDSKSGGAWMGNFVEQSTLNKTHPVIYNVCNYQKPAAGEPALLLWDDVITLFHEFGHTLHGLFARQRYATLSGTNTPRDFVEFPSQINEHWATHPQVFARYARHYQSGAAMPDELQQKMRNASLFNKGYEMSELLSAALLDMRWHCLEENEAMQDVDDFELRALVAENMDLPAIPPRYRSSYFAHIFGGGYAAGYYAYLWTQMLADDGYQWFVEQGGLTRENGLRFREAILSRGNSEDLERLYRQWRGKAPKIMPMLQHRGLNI

| Structure (SMILES) | IC50 [1] [nM] | IC50 [2] [nM] | IC50 [3] [nM] | other results |
| --- | --- | --- | --- | --- |
| CN[C@H](C(=O)N[C@@H](Cc1ccccc1)C(=O)N[C@@H](Cc1ccc(O)cc1)P(=O)(O)O)C(C)C | 370 | 590 | 220 |  |
| N[C@@H](Cc1ccc(O)cc1)P(=O)(O)O |  |  |  | IC50 [4]: > 1000 nM |
| CC[C@H](C)[C@H](NC(C)=O)C(=O)N[C@@H](Cc1ccc(O)cc1)C(=O)N[C@@H](Cc1ccc(O)cc1)P(=O)(O)O | 25 | 11 | 110 | Ki [2]: 11 nM; IC50 [5]: 11000 nM; IC50 [6]: 40000 nM; Ki [3]: 75 nM; IC50 [7]: 150000 nM |
| CN[C@H](C(=O)N[C@@H](Cc1ccc(O)cc1)C(=O)N[C@@H](Cc1ccc(O)cc1)P(=O)(O)O)C(C)C | 140 | 54 | 52 |  |

More lines, main results first:

| IC50 [1] [nM] | IC50 [2] [nM] | IC50 [3] [nM] | Structure (SMILES) | other results |
| --- | --- | --- | --- | --- |
| 5200 |  |  | CC[C@H](C)[C@H](NC(C)=O)C(=O)N[C@@H](CCC(=O)O)C(=O)N[C@@H](Cc1ccc(O)cc1)P(=O)(O)O |  |
| 35 |  |  | CC[C@H](C)[C@H](NC(C)=O)C(=O)N[C@@H](Cc1ccccc1)C(=O)N[C@@H](Cc1ccc(O)cc1)P(=O)(O)O |  |
| 100 | 12 | 76 | CC[C@H](C)[C@H](NC(C)=O)C(=O)N[C@@H](CC(C)C)C(=O)N[C@@H](Cc1ccc(O)cc1)P(=O)(O)O | Ki [2]: 21 nM; Ki [3]: 33 nM |
